Drawing on the supplement of paper PMC10307832, this text covers relative viability for 6 cell lines.

What all share (experiment): relative viability (nuclei count vs DMSO), 5 days (fraction); higher = more cells survive
Compound in the assay “Tanzisertib + Dasatinib”: O[C@H]1CC[C@H](Nc2ncc3nc(Nc4c(F)cc(F)cc4F)n([C@H]4CCOC4)c3n2)CC1 [Tanzisertib] + Cc1nc(Nc2ncc(C(=O)Nc3c(C)cccc3Cl)s2)cc(N2CCN(CCO)CC2)n1 [Dasatinib] (partner 0.075 µM)
The essentials:
(§1)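 After 5 days of treatment, lung cancer cells in 1536-well plates were fixed and stained in a single step (final 0.05% Triton X-100, 1% formaldehyde, 1 ug/ml Hoechst) and their nuclei counted on 4× images. Treatment had been applied by pin tool the day after seeding as one drug alone or as a fixed anchor-drug dose with five library-drug doses (not always all listed) in √10 steps. Relative viability is the nuclei count of treated wells divided by that of vehicle wells, and values are medians of duplicate plates.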

Compound in assay [1]: C1CNCCC1C2=CC(=NN2)C3=CC=NC=C3 + CS(=O)(=O)CCNCc1ccc(-c2ccc3ncnc(Nc4ccc(OCc5cccc(F)c5)c(Cl)c4)c3c2)o1 [Lapatinib] (partner 2 µM)
The method, boiled down: as §1

Compound in assay [2]: C[C@@H](N)c1ccc(C(=O)Nc2ccnc3[nH]ccc23)cc1 + O=C(CCCCCCC(=O)Nc1ccccc1)NO [Vorinostat] (partner 1 µM)
The essentials: as §1

Compound in assay [3]: C1CNCCC1C2=CC(=NN2)C3=CC=NC=C3 + CC1(C)CCC(c2ccc(Cl)cc2)=C(CN2CCN(c3ccc(C(=O)NS(=O)(=O)c4ccc(N[C@H](CCN5CCOCC5)CSc5ccccc5)c(S(=O)(=O)C(F)(F)F)c4)cc3)CC2)C1 [Navitoclax] (partner 0.5 µM)
The essentials:
as §1

As for PC-3 [JPC-3], the relative viability with Tanzisertib + Dasatinib (first compound 0.08 µM) is 0.912; with Tanzisertib + Dasatinib (first compound 0.253 µM), 1.04; with Tanzisertib + Dasatinib (first compound 0.8 µM), 1.01; with Tanzisertib + Dasatinib (first compound 2.53 µM), 0.977; with Tanzisertib + Dasatinib (first compound 8 µM), 0.886; in assay [1] (first compound 0.08 µM) it was 0.426. The relative viability in assay [1] (first compound 0.8 µM) was determined as 0.446; in assay [1] (first compound 2.53 µM), 0.499; in assay [1] (first compound 8 µM), 0.471; in assay [2] (first compound 0.04 µM) it was 0.803; in assay [2] (first compound 0.1265 µM), 0.77; in assay [2] (first compound 0.4 µM) it was 0.85. For the same cell line, the relative viability is 0.836 in assay [2] (first compound 1.265 µM); 0.725 in assay [2] (first compound 4 µM); 0.835 in assay [3] (first compound 0.08 µM); 0.905 in assay [3] (first compound 0.8 µM); 0.818 in assay [3] (first compound 2.53 µM); 0.786 in assay [3] (first compound 8 µM).

PC-14: the relative viability with Tanzisertib + Dasatinib (first compound 0.08 µM) is 0.341; in the assay with Tanzisertib + Dasatinib (first compound 0.253 µM), 0.238; with Tanzisertib + Dasatinib (first compound 0.8 µM) it was 0.306; with Tanzisertib + Dasatinib (first compound 2.53 µM) it was 0.234; with Tanzisertib + Dasatinib (first compound 8 µM), 0.116; in assay [1] (first compound 0.08 µM), 0.348. For the same cell line, the relative viability is 0.304 in assay [1] (first compound 0.8 µM); 0.318 in assay [1] (first compound 2.53 µM); 0.38 in assay [1] (first compound 8 µM); 0.714 in assay [2] (first compound 0.04 µM); 0.878 in assay [2] (first compound 0.1265 µM); 0.851 in assay [2] (first compound 0.4 µM). Further, the relative viability in assay [2] (first compound 4 µM) was determined as 0.683; in assay [3] (first compound 0.08 µM), 0.987; in assay [3] (first compound 0.8 µM), 1.13; in assay [3] (first compound 2.53 µM), 1.06; in assay [3] (first compound 8 µM), 0.979.

Take RERF-LC-KJ: the relative viability with Tanzisertib + Dasatinib (first compound 0.08 µM) was determined as 0.95; in the assay with Tanzisertib + Dasatinib (first compound 0.253 µM), 0.814; with Tanzisertib + Dasatinib (first compound 0.8 µM) it was 0.912; in the assay with Tanzisertib + Dasatinib (first compound 2.53 µM) it was 0.685; with Tanzisertib + Dasatinib (first compound 8 µM), 0.744; in assay [1] (first compound 0.08 µM), 0.784. Further, the relative viability came out at 0.835 in assay [1] (first compound 0.8 µM); 0.843 in assay [1] (first compound 2.53 µM); 0.85 in assay [1] (first compound 8 µM); 0.737 in assay [2] (first compound 0.04 µM); 0.736 in assay [2] (first compound 0.1265 µM); 0.838 in assay [2] (first compound 0.4 µM). Besides, the relative viability was 0.652 in assay [2] (first compound 1.265 µM); 0.74 in assay [2] (first compound 4 µM); 1.05 in assay [3] (first compound 0.08 µM); 1.01 in assay [3] (first compound 0.8 µM); 0.76 in assay [3] (first compound 2.53 µM); 0.94 in assay [3] (first compound 8 µM).

SK-LU-1: the relative viability with Tanzisertib + Dasatinib (first compound 0.08 µM) turned out to be 0.212; with Tanzisertib + Dasatinib (first compound 0.253 µM), 0.165; with Tanzisertib + Dasatinib (first compound 0.8 µM) it was 0.18; in the assay with Tanzisertib + Dasatinib (first compound 2.53 µM), 0.148; with Tanzisertib + Dasatinib (first compound 8 µM), 0.165; in assay [1] (first compound 0.08 µM) it was 0.944. Further, the relative viability in assay [1] (first compound 0.8 µM) worked out at 0.799; in assay [1] (first compound 2.53 µM) it was 0.849; in assay [1] (first compound 8 µM), 0.814; in assay [2] (first compound 0.04 µM), 0.776; in assay [2] (first compound 0.1265 µM) it was 0.767; in assay [2] (first compound 0.4 µM), 0.696. The relative viability in assay [2] (first compound 1.265 µM) was found to be 0.671; in assay [2] (first compound 4 µM), 0.522; in assay [3] (first compound 0.08 µM) it was 1.25; in assay [3] (first compound 0.8 µM) it was 0.913; in assay [3] (first compound 2.53 µM), 0.85; in assay [3] (first compound 8 µM) it was 0.88.

With SK-MES-1, the relative viability with Tanzisertib + Dasatinib (first compound 0.08 µM) came out at 0.39; in the assay with Tanzisertib + Dasatinib (first compound 0.253 µM), 0.35; in the assay with Tanzisertib + Dasatinib (first compound 0.8 µM) it was 0.337; with Tanzisertib + Dasatinib (first compound 2.53 µM), 0.32; with Tanzisertib + Dasatinib (first compound 8 µM), 0.212; in assay [1] (first compound 0.08 µM) it was 0.423. Moreover, the relative viability in assay [1] (first compound 0.8 µM) was found to be 0.381; in assay [1] (first compound 2.53 µM) it was 0.439; in assay [1] (first compound 8 µM), 0.421; in assay [2] (first compound 0.04 µM), 1.04; in assay [2] (first compound 0.1265 µM), 1.05; in assay [2] (first compound 0.4 µM) it was 1.11. In addition, the relative viability was 1.2 in assay [2] (first compound 1.265 µM); 1.17 in assay [2] (first compound 4 µM); 1.26 in assay [3] (first compound 0.08 µM); 1.36 in assay [3] (first compound 0.8 µM); 1.37 in assay [3] (first compound 2.53 µM); 1.2 in assay [3] (first compound 8 µM).

As for SW 1573, the relative viability is 0.595 with Tanzisertib + Dasatinib (first compound 0.08 µM); 0.662 with Tanzisertib + Dasatinib (first compound 0.253 µM); 0.46 with Tanzisertib + Dasatinib (first compound 0.8 µM); 0.552 with Tanzisertib + Dasatinib (first compound 2.53 µM); 0.513 with Tanzisertib + Dasatinib (first compound 8 µM); 1.03 in assay [1] (first compound 0.08 µM). Moreover, the relative viability in assay [1] (first compound 0.8 µM) came to 1.21; in assay [1] (first compound 2.53 µM), 1.17; in assay [1] (first compound 8 µM) it was 1.25; in assay [2] (first compound 0.04 µM) it was 0.652; in assay [2] (first compound 0.1265 µM), 0.669; in assay [2] (first compound 0.4 µM), 0.638. The relative viability in assay [2] (first compound 1.265 µM) was 0.428; in assay [2] (first compound 4 µM) it was 0.592; in assay [3] (first compound 0.08 µM), 0.778; in assay [3] (first compound 0.8 µM), 1.2; in assay [3] (first compound 2.53 µM), 1.19; in assay [3] (first compound 8 µM), 1.09.
